Assay results reported in ChEMBL document CHEMBL4732198, “HDAC7 Inhibition by Phenacetyl and Phenylbenzoyl Hydroxamates” (J Med Chem, 2021).
One block for each molecule: values may come before it. Activity calls are given as the source filed them. No cut-off for these calls is given here.

Legend:
[1] = Metabolic stability in Sprague-Dawley rat liver microsomes assessed as half life at 5 uM preincubated for 5 mins followed by NADPH addition and measured after 60 mins by LCMS analysis; assay type: ADME, Microsome; settings: time 65 min
[2] = Solubility of compound in PEG400 in PBS at 10 mg/ml; assay type: physicochemical
[3] = molecular target: T1, Protein deacetylase HDAC6 (Homo sapiens, UniProt Q9UBN7); assay: Inhibition of recombinant human HDAC6 using Boc-Lys(Ac)-AMC as substrate pre-incubated for 15 mins followed by substrate addition and measured after 60 mins by fluorescence based assay
T1 sequence (Q9UBN7 whole entry): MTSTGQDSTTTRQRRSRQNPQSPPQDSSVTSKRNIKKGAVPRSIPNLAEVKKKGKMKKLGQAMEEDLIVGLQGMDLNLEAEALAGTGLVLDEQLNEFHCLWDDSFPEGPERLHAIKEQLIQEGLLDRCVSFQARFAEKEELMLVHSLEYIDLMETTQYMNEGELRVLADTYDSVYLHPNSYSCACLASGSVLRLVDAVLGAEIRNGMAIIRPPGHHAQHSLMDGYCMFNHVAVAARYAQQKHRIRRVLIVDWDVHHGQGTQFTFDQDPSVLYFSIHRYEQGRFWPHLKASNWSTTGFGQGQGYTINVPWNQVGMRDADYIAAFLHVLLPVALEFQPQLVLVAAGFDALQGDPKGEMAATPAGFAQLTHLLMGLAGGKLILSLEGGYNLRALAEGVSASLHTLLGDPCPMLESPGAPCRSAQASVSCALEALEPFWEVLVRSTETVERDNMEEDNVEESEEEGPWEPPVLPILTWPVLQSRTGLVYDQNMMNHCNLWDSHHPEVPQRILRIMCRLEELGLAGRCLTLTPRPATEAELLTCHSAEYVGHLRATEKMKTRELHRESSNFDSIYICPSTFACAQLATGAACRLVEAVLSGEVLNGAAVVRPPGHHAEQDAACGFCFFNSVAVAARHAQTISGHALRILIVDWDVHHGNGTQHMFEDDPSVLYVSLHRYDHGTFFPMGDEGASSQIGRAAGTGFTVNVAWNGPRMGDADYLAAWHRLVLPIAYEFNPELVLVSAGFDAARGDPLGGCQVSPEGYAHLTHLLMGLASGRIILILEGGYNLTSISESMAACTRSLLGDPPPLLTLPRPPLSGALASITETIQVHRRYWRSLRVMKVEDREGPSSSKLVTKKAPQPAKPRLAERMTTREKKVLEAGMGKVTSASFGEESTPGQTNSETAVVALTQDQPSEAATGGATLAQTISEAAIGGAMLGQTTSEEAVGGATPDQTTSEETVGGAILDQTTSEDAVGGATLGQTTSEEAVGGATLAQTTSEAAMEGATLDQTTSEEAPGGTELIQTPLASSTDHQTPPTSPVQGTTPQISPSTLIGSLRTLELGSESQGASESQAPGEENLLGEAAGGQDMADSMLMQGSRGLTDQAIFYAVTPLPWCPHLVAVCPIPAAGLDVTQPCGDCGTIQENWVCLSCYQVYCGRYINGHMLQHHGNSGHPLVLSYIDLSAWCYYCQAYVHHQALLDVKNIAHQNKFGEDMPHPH

[4] = molecular target: T2, Histone deacetylase 8 (Homo sapiens, UniProt Q9BY41); assay: Inhibition of recombinant human HDAC8 using Ac-LGK(TFA)-AMC as substrate preincubated for 30 mins followed by substrate addition and measured after 90 mins by fluorescence based assay
T2 sequence (Q9BY41 whole entry): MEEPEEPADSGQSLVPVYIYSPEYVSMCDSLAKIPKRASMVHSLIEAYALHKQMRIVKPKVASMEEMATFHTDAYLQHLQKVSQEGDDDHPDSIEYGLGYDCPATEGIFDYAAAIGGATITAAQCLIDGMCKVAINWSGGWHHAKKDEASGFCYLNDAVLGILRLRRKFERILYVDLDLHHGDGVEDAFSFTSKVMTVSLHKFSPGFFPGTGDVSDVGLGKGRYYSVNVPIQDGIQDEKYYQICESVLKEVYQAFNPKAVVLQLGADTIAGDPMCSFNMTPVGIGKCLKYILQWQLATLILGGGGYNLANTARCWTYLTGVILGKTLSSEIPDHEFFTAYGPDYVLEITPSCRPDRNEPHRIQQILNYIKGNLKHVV

[5] = molecular target: Histone deacetylase 9 (Homo sapiens, UniProt Q9UKV0); assay: Inhibition of recombinant human HDAC9 using Ac-LGK(TFA)-AMC as substrate preincubated for 15 mins followed by substrate addition and measured after 60 mins by fluorescence based assay
Sequence of Histone deacetylase 9 (Q9UKV0 whole entry): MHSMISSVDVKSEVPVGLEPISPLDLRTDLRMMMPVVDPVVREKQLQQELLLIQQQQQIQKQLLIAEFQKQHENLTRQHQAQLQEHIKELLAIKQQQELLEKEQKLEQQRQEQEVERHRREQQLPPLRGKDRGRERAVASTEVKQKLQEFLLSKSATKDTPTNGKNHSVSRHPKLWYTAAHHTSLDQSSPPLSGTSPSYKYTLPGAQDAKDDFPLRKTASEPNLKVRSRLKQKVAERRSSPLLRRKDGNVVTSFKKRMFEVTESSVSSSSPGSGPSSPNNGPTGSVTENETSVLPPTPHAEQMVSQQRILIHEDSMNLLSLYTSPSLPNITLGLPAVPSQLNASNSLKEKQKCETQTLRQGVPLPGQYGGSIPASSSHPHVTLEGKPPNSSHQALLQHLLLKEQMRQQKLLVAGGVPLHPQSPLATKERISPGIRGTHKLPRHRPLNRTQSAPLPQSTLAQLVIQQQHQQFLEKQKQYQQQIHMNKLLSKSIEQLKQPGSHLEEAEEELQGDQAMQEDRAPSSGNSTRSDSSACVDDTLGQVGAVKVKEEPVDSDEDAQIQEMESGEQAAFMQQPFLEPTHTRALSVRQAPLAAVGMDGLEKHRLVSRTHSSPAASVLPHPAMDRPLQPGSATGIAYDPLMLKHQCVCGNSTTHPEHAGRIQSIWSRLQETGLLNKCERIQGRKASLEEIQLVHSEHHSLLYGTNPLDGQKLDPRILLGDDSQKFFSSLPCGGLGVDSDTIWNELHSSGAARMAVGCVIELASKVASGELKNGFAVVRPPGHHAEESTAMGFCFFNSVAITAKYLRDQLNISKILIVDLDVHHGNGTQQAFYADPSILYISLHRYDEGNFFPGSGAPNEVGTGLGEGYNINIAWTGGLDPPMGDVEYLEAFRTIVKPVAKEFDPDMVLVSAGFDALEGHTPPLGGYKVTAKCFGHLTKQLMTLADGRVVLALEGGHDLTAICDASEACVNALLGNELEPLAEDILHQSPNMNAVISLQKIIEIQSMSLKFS

[6] = molecular target: T3, Class 1 histone deacetylase (Homo sapiens, UniProt Q13547+O15379+Q92769+Q9BY41); assay: Inhibition of Class 1 histone deacetylase in human THP-1 cells using Ac-LGK(Ac)-AMC as substrate incubated for 3 hrs followed by 50 uM SAHA addition and measured after 1 hr by fluorescence based assay; assay type: cell-based
[7] = Inhibition of Class 2a histone deacetylase in human THP-1 cells using Ac-LGK(TFA)-AMC as substrate incubated for 3 hrs followed by 50 uM SAHA addition and measured after 1 hr by fluorescence based assay; assay type: cell-based
[8] = molecular target: Histone deacetylase 1 (Homo sapiens, UniProt Q13547); assay: Inhibition of recombinant human HDAC1 using Ac-LGK(Ac)-AMC as substrate preincubated for 30 mins followed by substrate addition and measured after 90 mins by fluorescence based assay
Sequence of Histone deacetylase 1 (Q13547 whole entry): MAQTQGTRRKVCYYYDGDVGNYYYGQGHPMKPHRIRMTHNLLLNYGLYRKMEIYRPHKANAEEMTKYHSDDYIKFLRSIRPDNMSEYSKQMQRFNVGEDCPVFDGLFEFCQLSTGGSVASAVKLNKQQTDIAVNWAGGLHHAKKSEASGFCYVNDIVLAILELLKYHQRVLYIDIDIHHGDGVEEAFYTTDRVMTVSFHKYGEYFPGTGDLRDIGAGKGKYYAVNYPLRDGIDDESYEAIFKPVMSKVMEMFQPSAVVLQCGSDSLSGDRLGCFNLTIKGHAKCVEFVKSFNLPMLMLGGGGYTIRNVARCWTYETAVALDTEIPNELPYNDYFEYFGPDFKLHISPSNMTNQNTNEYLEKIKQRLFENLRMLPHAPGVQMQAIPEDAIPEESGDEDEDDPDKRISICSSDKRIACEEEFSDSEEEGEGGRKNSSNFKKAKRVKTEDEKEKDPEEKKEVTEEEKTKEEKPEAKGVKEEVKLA

[9] = molecular target: T4, Histone deacetylase 7 (Homo sapiens, UniProt Q8WUI4)
T4 sequence (Q8WUI4 whole entry): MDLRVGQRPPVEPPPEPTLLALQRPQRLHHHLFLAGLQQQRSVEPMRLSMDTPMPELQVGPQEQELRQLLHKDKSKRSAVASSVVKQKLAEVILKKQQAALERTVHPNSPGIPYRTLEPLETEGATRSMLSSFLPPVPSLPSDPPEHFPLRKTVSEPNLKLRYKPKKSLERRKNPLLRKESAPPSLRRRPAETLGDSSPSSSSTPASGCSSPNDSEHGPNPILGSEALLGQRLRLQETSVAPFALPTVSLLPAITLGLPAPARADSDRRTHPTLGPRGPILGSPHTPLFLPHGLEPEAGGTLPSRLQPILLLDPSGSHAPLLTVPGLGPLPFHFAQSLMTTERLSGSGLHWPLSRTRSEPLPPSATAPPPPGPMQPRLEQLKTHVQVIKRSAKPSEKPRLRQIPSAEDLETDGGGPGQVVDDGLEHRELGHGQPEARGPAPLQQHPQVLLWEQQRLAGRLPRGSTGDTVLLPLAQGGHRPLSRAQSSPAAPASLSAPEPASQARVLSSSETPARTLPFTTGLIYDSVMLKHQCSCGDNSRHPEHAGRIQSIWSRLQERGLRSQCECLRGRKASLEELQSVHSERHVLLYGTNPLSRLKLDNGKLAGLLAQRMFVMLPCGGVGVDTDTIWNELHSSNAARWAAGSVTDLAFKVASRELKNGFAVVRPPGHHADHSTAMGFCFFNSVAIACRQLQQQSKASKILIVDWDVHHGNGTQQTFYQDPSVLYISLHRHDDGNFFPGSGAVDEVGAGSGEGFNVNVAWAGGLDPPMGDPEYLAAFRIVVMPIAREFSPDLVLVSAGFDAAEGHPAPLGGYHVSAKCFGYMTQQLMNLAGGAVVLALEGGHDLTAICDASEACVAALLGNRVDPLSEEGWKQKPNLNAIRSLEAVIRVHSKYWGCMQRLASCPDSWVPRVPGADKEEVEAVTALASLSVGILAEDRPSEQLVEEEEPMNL
Description: Inhibition of recombinant human HDAC7 using Ac-LGK(TFA)-AMC as substrate pre-incubated for 15 mins followed by substrate addition and measured after 60 mins by fluorescence based assay

[10] = molecular target: T3, Class 1 histone deacetylase; assay: Inhibition of Class 1 histone deacetylase in human THP-1 cells assessed as accumulation of Histone H4 acetylation levels at 1 to 10 uM incubated for 3 hrs by western blot analysis; assay type: cell-based; settings: dose 1-10 µM
[11] = molecular target: Histone deacetylase 4 (Homo sapiens, UniProt P56524); assay: Inhibition of recombinant human HDAC4 using Ac-LGK(TFA)-AMC as substrate pre-incubated for 15 mins followed by substrate addition and measured after 60 mins by fluorescence based assay
Sequence of Histone deacetylase 4 (P56524 whole entry): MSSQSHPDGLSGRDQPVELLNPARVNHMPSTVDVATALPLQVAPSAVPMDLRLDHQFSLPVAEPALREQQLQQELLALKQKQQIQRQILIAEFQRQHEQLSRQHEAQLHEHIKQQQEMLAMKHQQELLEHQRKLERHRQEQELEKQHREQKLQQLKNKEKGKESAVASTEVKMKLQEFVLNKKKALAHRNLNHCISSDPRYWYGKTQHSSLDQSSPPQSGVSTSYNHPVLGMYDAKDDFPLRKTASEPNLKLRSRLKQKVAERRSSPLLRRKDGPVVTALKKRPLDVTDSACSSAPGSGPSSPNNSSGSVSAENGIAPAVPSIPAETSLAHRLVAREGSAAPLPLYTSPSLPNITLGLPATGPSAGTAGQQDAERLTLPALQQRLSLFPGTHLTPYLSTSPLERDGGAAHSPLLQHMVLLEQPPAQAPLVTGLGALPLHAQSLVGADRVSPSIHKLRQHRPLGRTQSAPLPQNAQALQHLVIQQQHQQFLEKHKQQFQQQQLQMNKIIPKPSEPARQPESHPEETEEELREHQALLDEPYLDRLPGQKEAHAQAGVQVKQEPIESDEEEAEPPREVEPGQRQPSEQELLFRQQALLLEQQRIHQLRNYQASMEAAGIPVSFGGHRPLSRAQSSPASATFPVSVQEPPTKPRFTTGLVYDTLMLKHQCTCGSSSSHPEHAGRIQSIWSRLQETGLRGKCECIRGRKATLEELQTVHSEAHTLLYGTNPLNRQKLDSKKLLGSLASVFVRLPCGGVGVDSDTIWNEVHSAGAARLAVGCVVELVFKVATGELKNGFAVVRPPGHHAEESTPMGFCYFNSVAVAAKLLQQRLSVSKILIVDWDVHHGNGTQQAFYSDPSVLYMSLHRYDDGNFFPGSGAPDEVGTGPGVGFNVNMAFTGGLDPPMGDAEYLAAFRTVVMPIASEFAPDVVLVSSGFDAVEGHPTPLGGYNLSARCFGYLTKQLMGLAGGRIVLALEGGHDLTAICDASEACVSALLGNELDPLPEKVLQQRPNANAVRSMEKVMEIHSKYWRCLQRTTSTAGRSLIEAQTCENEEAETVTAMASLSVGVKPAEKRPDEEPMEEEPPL

[12] = test system: Macrophage; assay: Antiinflammatory activity in human monocytes-derived macrophages assessed as inhibition of LPS-induced IL-1alpha secretion at 30 uM pretreated for 1 hr followed by LPS stimulation and measured after 24 hrs by homogenous time-resolved fluorescence assay; assay type: functional, cell-based; settings: time 25.0 hrs
[13] = test system: Macrophage; assay: Antiinflammatory activity in human monocytes-derived macrophages assessed as inhibition of LPS-induced GM-CSF secretion at 30 uM pretreated for 1 hr followed by LPS stimulation and measured after 24 hrs by homogenous time-resolved fluorescence assay; assay type: functional, cell-based; settings: time 25.0 hrs
[14] = test system: Macrophage; assay: Antiinflammatory activity in human monocytes-derived macrophages assessed as inhibition of LPS-induced IL-23 secretion at 30 uM pretreated for 1 hr followed by LPS stimulation and measured after 24 hrs by homogenous time-resolved fluorescence assay; assay type: functional, cell-based; settings: time 25.0 hrs
[15] = test system: Macrophage; assay: Antiinflammatory activity in human monocytes-derived macrophages assessed as inhibition of LPS-induced IL-6 secretion at 30 uM pretreated for 1 hr followed by LPS stimulation and measured after 24 hrs by homogenous time-resolved fluorescence assay; assay type: functional, cell-based; settings: time 25.0 hrs
[16] = test system: Macrophage; assay: Antiinflammatory activity in human monocytes-derived macrophages assessed as inhibition of LPS-induced CCL2 secretion at 30 uM pretreated for 1 hr followed by LPS stimulation and measured after 24 hrs by homogenous time-resolved fluorescence assay; assay type: functional, cell-based; settings: time 25.0 hrs
[17] = test system: Macrophage; assay: Antiinflammatory activity in human monocytes-derived macrophages assessed as inhibition of LPS-induced IL-12p40 secretion at 30 uM pretreated for 1 hr followed by LPS stimulation and measured after 24 hrs by homogenous time-resolved fluorescence assay; assay type: functional, cell-based; settings: time 25.0 hrs
[18] = Metabolic stability in Sprague-Dawley rat liver microsomes assessed as half life at 20 uM preincubated for 5 mins followed by NADPH addition and measured after 60 mins by LCMS analysis; assay type: ADME, Microsome; settings: time 65 min
[19] = molecular target: Histone deacetylase 5 (Homo sapiens, UniProt Q9UQL6); assay: Inhibition of recombinant human HDAC5 using Ac-LGK(TFA)-AMC as substrate pre-incubated for 15 mins followed by substrate addition and measured after 60 mins by fluorescence based assay
Sequence of Histone deacetylase 5 (Q9UQL6 whole entry): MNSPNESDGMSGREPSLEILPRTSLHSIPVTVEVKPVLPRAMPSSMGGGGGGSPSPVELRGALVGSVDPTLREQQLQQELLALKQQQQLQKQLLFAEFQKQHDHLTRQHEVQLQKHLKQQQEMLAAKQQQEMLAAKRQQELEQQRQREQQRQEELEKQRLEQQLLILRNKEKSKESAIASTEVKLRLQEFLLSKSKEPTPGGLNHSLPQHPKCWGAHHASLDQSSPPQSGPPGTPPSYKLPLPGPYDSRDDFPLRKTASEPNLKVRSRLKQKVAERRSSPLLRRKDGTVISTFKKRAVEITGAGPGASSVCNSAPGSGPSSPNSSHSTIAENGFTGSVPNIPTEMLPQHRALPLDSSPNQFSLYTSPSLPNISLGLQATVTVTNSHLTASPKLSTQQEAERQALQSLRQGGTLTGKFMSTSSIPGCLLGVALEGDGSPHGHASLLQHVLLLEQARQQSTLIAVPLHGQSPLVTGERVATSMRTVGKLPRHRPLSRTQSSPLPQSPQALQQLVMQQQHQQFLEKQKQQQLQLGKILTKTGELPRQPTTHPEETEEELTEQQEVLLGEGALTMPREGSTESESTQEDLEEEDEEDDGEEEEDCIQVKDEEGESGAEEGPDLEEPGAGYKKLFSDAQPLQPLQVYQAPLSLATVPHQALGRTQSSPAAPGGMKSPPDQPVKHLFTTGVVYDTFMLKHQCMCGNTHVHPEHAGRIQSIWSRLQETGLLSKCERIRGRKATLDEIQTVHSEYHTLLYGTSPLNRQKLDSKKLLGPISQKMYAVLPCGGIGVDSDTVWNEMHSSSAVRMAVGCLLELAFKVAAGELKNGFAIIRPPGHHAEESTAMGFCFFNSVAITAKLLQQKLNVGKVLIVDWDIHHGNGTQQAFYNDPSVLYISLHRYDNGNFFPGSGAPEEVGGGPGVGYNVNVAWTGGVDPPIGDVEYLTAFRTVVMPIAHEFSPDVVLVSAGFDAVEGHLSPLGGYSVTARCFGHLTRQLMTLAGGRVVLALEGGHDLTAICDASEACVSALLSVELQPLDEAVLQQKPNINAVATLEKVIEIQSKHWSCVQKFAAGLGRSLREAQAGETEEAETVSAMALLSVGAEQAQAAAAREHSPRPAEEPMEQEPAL

IC50 [9]: 1100 nM
Compound: O=C(NO)C(OCCCN1C(=O)c2ccccc2C1=O)c1cccc(Cl)c1 (configuration not stated)

IC50 [9]: 1100 nM
Compound: O=C(NO)C(OCCCN1C(=O)c2ccccc2C1=O)c1ccccc1 (configuration not stated)

IC50 [8]: 1.4 µM
IC50 [9]: 1400 nM
Compound: O=C(O)c1cccc(C(CCCCN2C(=O)c3ccccc3C2=O)C(=O)NO)c1 (configuration not stated)

IC50 [8]: > 100 µM
Compound: O=C(NO)c1ccc(CN2C(=O)c3cccnc3C2=O)cc1-c1ccccc1

IC50 [8]: 0.17 µM
Compound: O=C(NO)c1ccc(CN2C(=O)c3ccccc3C2=O)cc1

IC50 [8]: > 10 µM
IC50 [9]: 1900 nM
Compound: O=C(NCCCCC(C(=O)NO)c1ccccc1)c1ccccc1O (configuration not stated)

IC50 [8]: 26 µM
half-life at 5 µM [1]: 32 min
Compound: O=C(NO)C(CCCCN1C(=O)c2ccccc2C1=O)c1ccccc1 (configuration not stated)

IC50 [8]: 20 µM
Compound: O=C(NO)[C@H](CCCCN1C(=O)c2ccccc2C1=O)c1ccccc1

IC50 [8]: > 100 µM
Compound: O=C(NO)c1ccc(CN2C(=O)c3ccncc3C2=O)cc1-c1ccccc1

IC50 [8]: 19 µM
Compound: O=C(NO)[C@@H](CCCCN1C(=O)c2ccccc2C1=O)c1ccccc1

IC50 [8]: 10 µM
half-life at 5 µM [1]: 169 min
Compound: O=C(NO)c1ccc(CN2Cc3ccccc3C2=O)cc1-c1ccccc1

Continued, molecule first:

Compound: O=C(NO)c1ccc(CN2C(=O)c3cccc(F)c3C2=O)cc1-c1ccccc1
half-life at 5 µM [1]: 485 min
solubility [2]: Insoluble
IC50 [3]: 4.2 µM
IC50 [4]: 88 nM
IC50 [5]: 46 nM
IC50 [6]: > 30 µM
IC50 [7]: 300 nM

Compound: COc1ccc(CC(=O)NCCCCC(C(=O)NO)c2ccccc2)cc1 (configuration not stated)
IC50 [8]: 10 µM
IC50 [9]: 1700 nM

Compound: CC(C)[C@H](C(=O)Nc1ccc(C(=O)NO)cc1)c1ccccc1
inhibition [10]: Active

Compound: Cc1ccc(C(=O)NO)c(-c2ccccc2)c1
IC50 [8]: > 100 µM

Compound: O=C(O)c1ccccc1C(=O)NCc1ccc(C(=O)NO)c(-c2ccccc2)c1
IC50 [8]: > 100 µM

Compound: O=C(NCc1ccc(C(=O)NO)c(-c2ccccc2)c1)c1ccccc1F
IC50 [8]: 39 µM

Compound: O=C(NO)c1ccc(CN2C(=O)c3ccccc3C2=O)cc1-c1ccccc1
half-life at 5 µM [1]: 55 min
solubility [2]: Insoluble
IC50 [3]: 6.4 µM
IC50 [4]: 72 nM
IC50 [5]: 20 nM
IC50 [6]: > 30 µM
IC50 [7]: 300 nM

Compound: O=C(NO)c1ccc(CN2C(=O)c3ccccc3S2(=O)=O)cc1-c1ccccc1
IC50 [11]: 49 nM
half-life at 5 µM [1]: 230 min
solubility [2]: Soluble
IC50 [3]: 5.3 µM
IC50 [4]: 71 nM
IC50 [5]: 38 nM
IC50 [6]: > 30 µM
IC50 [7]: 300 nM
inhibition [10]: inactive
Activity [12]: Active
Activity [13]: Active
Activity [14]: Active
Activity [15]: Active
Activity [16]: Active
Activity [17]: inactive

Compound: CC(C)(CNC(=O)c1cccc(-c2noc(C(F)(F)F)n2)c1)c1coc(-c2ccccc2)n1
IC50 [11]: 354 nM
IC50 [8]: 45 µM
half-life at 20 µM [18]: 46 min
IC50 [19]: 216 nM
IC50 [4]: 2100 nM
IC50 [5]: 16 nM
IC50 [6]: > 30 µM
IC50 [7]: 3000 nM
inhibition [10]: inactive
Activity [12]: Active
Activity [13]: Active
Activity [14]: Active
Activity [15]: Active
Activity [16]: Active
Activity [17]: inactive

Compound: O=C(NO)c1ccc(CN2C(=O)CCC2=O)cc1-c1ccccc1
IC50 [8]: > 100 µM

Compound: O=C(CCCCCCC(=O)Nc1ccccc1)NO [VORINOSTAT]
half-life at 5 µM [1]: 198 min
